# From patent US20260272908A1 (VANDERBILT UNIVERSITY, priority 2023, published 2026)
# What was measured:
# Meta4 organoids [1] = assay: FACS analysis of Meta4 organoids (7-AAD/annexin V; CD133/CD166); type: cell-based, mouse
# Meta3 organoids = assay: Meta3 metaplastic organoid growth and survival (organoid diameter, phase-contrast); type: cell-based, mouse; conditions: trametinib 1 μM, pyrvinium 100 nM, 3 days
# Description: (§1) All experiments were repeated at least three times.
# (§2) All experiments were performed at least in triplicate.
# CD133 and CD166 = assay: qRT-PCR of dysplastic stem cell markers in Meta4 organoids; type: cell-based, mouse; conditions: pyrvinium-treated vs DMSO
# Description: FIG. 4D-4E show lusters of dysplastic stem cells (DSCs) differentiated cells or damaged cells in a superimposed UMAP plot (FIG. 4D) and their proportions in DMSO-treated and Pyr-treated Meta4 samples (FIG. 4E).
# Total RNAs were extracted from Meta3 or Meta4 organoids using the Trizol (Invitrogen) reagent. cDNAs were synthesized using iScript gDNA clear cDNA synthesis kit (Bio-Rad) and RT-PCR was performed using SsoAdvanced™ Universal SYBR Green supermix (Bio-Rad) and a CFX96 Real-Time PCR Detection System (Bio-Rad). GAPDH, a house keeping gene, was used to normalize gene expression levels. All reactions were performed in triplicate and relative gene expression levels were obtained by the comparative ΔΔCt method using CFX Maestro software (Bio-Rad).
# Meta4 organoids [2] = assay: Meta4 dysplastic organoid growth and cell death (organoid diameter, phase-contrast, H&E, live/dead staining); type: cell-based, mouse; conditions: pyrvinium 100 nM, SSTC3 0.2-1 μM, STAT3-IN-1 1 μM, Sttatic 2 μM, 3 days
# Description: as §1, §2
# p-STAT3^Y705 = assay: Western blot for phospho-STAT3 in hPCO lines; type: cell-based, human
# Excerpt: (§3) FIG. 7C-7D show Western blot analysis for p-STAT3 and p-ERK in three Pyr-resistant hPCO lines after Pyr treatment (FIG. 7C) and ratios of p-STAT3/t-STAT3 and p-ERK/t-ERK (FIG. 7D). FIG. 7E-7F show a Western blot for basal p-STAT3 and p-ERK levels in Pyr-sensitive and Pyr-resistant hPCO lines (FIG. 7E), and ratios of p-STAT3/t-STAT3 and p-ERK/t-ERK (FIG. 7F). FIG. 7G-7H show a Western blot for p-STAT3 and p-ERK in hPCO-3 after treatment of trametinib (Tra), Pyr, and their combinations (FIG. 7G), and ratios of p-STAT3/t-STAT3 and p-ERK/t-ERK (FIG. 7H). […] FIG. 7K-7L show phase-contrast images of Pyr-sensitive hPCO-2 treated with DMSO, Pyr, STAT3-IN-1, Sttatic, and Cryptotanshinone (CPT) for 6 days (FIG. 7K) and quantitation of organoid diameters before and after treatment (FIG. 7L). Mean±standard deviation. […]
# (§4) Total proteins were extracted from organoids using radioimmunoprecipitation assay buffer (10 mmol/L Tris-HC, pH 7.2, 150 mmol/L NaCl, 5 mmol/L EDTA, 0.1% sodium dodecyl sulfate, 1.0% Triton X-100, 1% deoxycholate) with protease inhibitors. The protein concentration was measured The Bio-Rad Protein Assay (Bio-Rad Laboratories, Hercules, CA). […] After washes with TBS-T, chemiluminescence was detected with an Amersham Imager 680 instrument (GE Healthcare) after 1 mL of the SuperSignal West Femto Maximum Sensitivity Substrate (ThermoFisher) was applied to the membranes.
# STAT3-target genes = assay: Quantitative real time-PCR for STAT3 target genes in Meta4 organoids; type: cell-based, mouse; conditions: pyrvinium 100 nM
# Description: FIG. 3C-3D show the Western blot analysis for p-STAT3 and p-ERK in Meta3 and Meta4 organoids (FIG. 3C) and ratios of p-STAT3/total STAT3 and p-ERK/total ERK (FIG. 3D). […] FIG. 3F-3G show phase-contrast images of Meta4 organoids treated with DMSO, Pyr (100 nM), STAT3-IN-1 (1 μM), Stattic (2 μM), and Cryptotanshinone (CPT) (5 μM) for 3 days (FIG. 3F), and quantitation of organoid diameters before and after treatment (FIG. 3G). FIG. 3H-3I show phase-contrast images of Meta4 organoids treated with DMSO, trametinib (Tra), STAT3-IN-1, combination of Tra and STAT3-IN-1, and Pyr, for 3 days (FIG. 3H), and quantitation of organoid diameters before and after treatment (FIG. 3I). FIG. 3J-3K show western blot for p-STAT3 and p-ERK after treatment of Tra, Pyr, and SSTC3 (FIG. 3J) and ratios of p-STAT3/t-STAT3 and p-ERK/t-ERK (FIG. 3K). […] Relative quantification of each gene expression level was normalized to GAPDH gene expression. Shading scale represents the mRNA expression values. FIG. 3M show representative mRNA of Pim-1 and Cyclin-B1 after treatment. Mean±standard deviation. […] Scale bar=500 μM.
# Two-tailed Mann-Whitney test.
# [3] = system: STAT pathway / STAT3^Y705 phosphorylation; assay: Phospho-antibody array in Meta3 and Meta4 organoids; type: cell-based, mouse; conditions: pyrvinium, 3 days
# Excerpt: Shading scale represents standardized log 2(FDR) values. […] Each square represents the signal ratio of the antibody against the unphosphorylated form of the site. FIG. 2E schematically illustrates how the STAT3 and DPPs in RAS/MAPK pathway is affected by Pyr treatment in precancerous organoids.
# The top 10 protein candidates were selected, including p-MYC^T358, p-PKCtheta^T538, p-C-Raf^S43 p-STAT3^Y705, p-Pyk2^T580, p-Histone H3.1^S10, p-CREB^T100, p-Pyk2^T881, p-SRF^S77, and p-ERK1/2(p44/42)^T202(FIG. 2C-2D). As the organoids were derived from Mist1-Kras mice, it is not surprising that many proteins on the list are directly related to MAPK and PKC signaling pathways, with the exception of STAT3 (FIG. 2E).
# p-ERK = assay: Western blot for phospho-ERK in hPCO lines; type: cell-based, human
# Excerpt: as §3, §4
# Mist1-Kras mice = assay: Pyrvinium treatment of Mist1-Kras mice (metaplasia progression to dysplasia, gastric corpus histology and immunostaining); type: in vivo, mouse; conditions: pyrvinium 2 weeks, qRT-PCR
# [4] = three pyrvinium-resistant hPCO lines
# [5] = three pyrvinium-sensitive hPCO lines
compound,measurement,setting,value
Cc1cc(/C=C/c2ccc3cc(N(C)C)ccc3[n+]2C)c(C)n1-c1ccccc1 [pyrvinium],CD133^+CD166^+ DSCs (FACS),Meta4 organoids [1]; pyrvinium-treated,significant decrease
same,7-AAD and Annexin V expression,Meta4 organoids [1]; pyrvinium-treated cells,increase
same,organoid size compared to control organoids treated with DMSO,Meta3 organoids,significant reduction in size
same,CD133 and CD166 gene expression,CD133 and CD166,decreases
same,organoid size / growth,Meta4 organoids [2],reduction in organoid size
same,p-STAT3^Y705 levels,p-STAT3^Y705; [4],no significant differences
same,p-STAT3^Y705 levels,p-STAT3^Y705; [5],decreased
same,"expression of several STAT3-target genes, including Cyclin B1 and Pim-1",STAT3-target genes,downregulated
same,most prominent effect on protein phosphorylation (phospho-array),[3]; Meta3 and Meta4,dephosphorylation of proteins related to the STAT pathway
same,STAT3^Y705 phosphorylation (phospho-array),[3],loss
same,p-ERK levels,p-ERK; [4],no significant differences
same,p-ERK levels,p-ERK; [5],decreased
same,expression of myeloid-derived suppressor cell (MDSC)-related markers,Mist1-Kras mice,"tended to increase, although the changes were not significant"
